{"source": "patent US5061706A", "about": "“2,3-quinoxalinediones for use as neuroleptics” (priority 1988, dated 1991)", "key": {"[1]": {"test_system": "NMDA (N-methyl-D-aspartate) receptors", "settings": "in words, literature; cited from earlier work"}, "kainate receptors": {"test_system": "kainate receptors", "settings": "in words, literature; cited from earlier work"}, "quisqualate receptors": {"test_system": "quisqualate receptors", "settings": "in words, literature; cited from earlier work"}, "[2]": {"target": "quisqualate type receptors", "assay": "3H-AMPA binding (displacement of 3H-AMPA from quisqualate type receptors, rat cerebral cortical membrane homogenate)", "settings": "concentration causing 50% displacement of specific 3H-AMPA binding; Hill analysis; pH 7.1, 0° C., 30 min", "procedure": "The pharmacological properties of the compounds of the present invention can be illustrated by determining their capability for displacing radioactively labelled 2-amino-3-hydroxy-5-methyl-4-isoxazolepropionic acid (AMPA) from the quisqualate type receptors.\nThe displacement activity of the compounds may be shown by determining the IC50 value which represents the concentration (μg/ml) which causes a displacement of 50% of the specific binding of ^3 H-AMPA.\n500 μl of thawed rat cerebral cortical membrane homogenate in Tris-HCl (30 mM), CaCl2 (2.5 mM) and KSCN (100 mM) pH 7.1 were incubated at 0° C. for 30 min. with 25 μl ^3 H-AMPA (5 nM final concentration) and the test compound and buffer. Nonspecific binding was determined by incubation with L-glutamic acid (600 μM final concentration). The binding reaction was terminated by adding 5 ml of ice-cold buffer followed by filtration through Whatman GF/C glass fibre filters and 2×5 ml wash with ice-cold buffer. Bound radioactivity was measured by scintillation counting. IC50 was determined by Hill analysis of at least four concentrations of test compound."}, "[3]": {"target": "quisqualic acid stimulated 3H-GABA efflux from cultured cortical neurones (quisqualate receptors)", "assay": "Release experiments: antagonism of quisqualic acid stimulated 3H-GABA efflux from cultured cortical neurones", "type": "cell-based, mouse", "settings": "Table 1 Ki; test not stated", "procedure": "The pharmacological properties of the compounds of the present invention can be illustrated by determining their capability for displacing radioactively labelled 2-amino-3-hydroxy-5-methyl-4-isoxazolepropionic acid (AMPA) from the quisqualate type receptors. […]\nCerebral cortices of 16 day old mouse embryos are chopped in 0.4×0.4 mm cubes. The tissue is dissociated by mild trypsinization (0.1% (wt/vol) trypsin, 37° C., 15 min) and subsequently inoculated into poly-L-lysine-coated 3 cm Petri dishes containing a slightly modified DMEM (24.5 mM KCl, 30 mM glucose) supplemented with p-aminobenzoate (7 μM), insulin (100 mU/1) and 10% (vol/vol) horse serum. Cells are maintained in culture for 5-7 days with the addition of the antimitotic agent cytosine arbinoside (40 μM) from day 2 in vitro to prevent glial proliferation. For further details and references see Drejer et al. (Exp. Brain Res. 47, 259 (1982)).\nRelease experiments are performed using the model described by Drejer et al. (Life Sci. 38, 2077 (1986)). Cerebral cortex interneurons cultured in Petri dishes (30 mm) are added 100 μM gamma-vinyl-GABA one hour before the experiment in order to inhibit degradation of GABA in the neurons. 30 min. before the experiment 5 μCi ^3 H-GABA is added to each culture and after this preloading period the cell monolayer at the bottom of the dish is covered with a piece of nylon mesh to protect the cells against mechanical damage and to facilitate dispersion of medium over the cell layer. The preloading medium is removed and the Petri dishes are placed in a superfusion system. This system consists of a peristaltic pump continuously delivering thermostated 37° C. superfusion medium (HEPES buffered saline (HBS): 10 mM HEPES, 135 mM NaCl, 5 mM KCl, 0.6 mM MGSO4, 1.0 mM CaCl2 and 6 mM D-glucose; pH 7.4) from a reservoir to the top of the slightly tilted Petri dish. The medium is continuously collected from the lower part of the dish and delivered to a fraction collector. Initially, the cells are superfused with HBS for 15 min. (flow rate 2 ml/min.). The cells are stimulated for 30 sec. every 4 min. by changing the superfusion medium from HBS to a corresponding medium containing quisqualate and test compound. The release of ^3 H-GABA in the presence of quisqualate (stimulated release in cpm) are corrected for the mean basal release (Cpm) before and after the stimulation."}}, "data": [{"smiles": "O=C(O)[C@@H]1CCCN[C@H]1C(=O)O", "note": "(relative stereo) [trans-2,3-PDA, trans-2,3-piperidine dicarboxylic acid]", "values": [{"measurement": "agonist or antagonist activity on NMDA receptors", "setting": "[1]", "value": "strong to moderate agonist activity"}]}, {"smiles": "NC(CCC(=O)NCC(=O)O)C(=O)O", "note": "(stereo not drawn) [3-glutamyl-glycine]", "values": [{"measurement": "antagonism / inhibition of binding at kainate receptors", "setting": "kainate receptors", "value": "some selectivity for kainate receptors"}]}, {"smiles": "Cc1onc(O)c1CC(N)C(=O)O", "note": "(stereo not drawn) [AMPA, 2-amino-3-hydroxy-5-methyl-4-isoxazolepropionic acid]", "values": [{"measurement": "agonist or antagonist activity on quisqualate receptors", "setting": "quisqualate receptors", "value": "potent agonists"}]}, {"smiles": "N[C@H](CCCC(=O)O)C(=O)O", "note": "[D-2-amino-adipic acid]", "values": [{"measurement": "agonist or antagonist activity on NMDA receptors", "setting": "[1]", "value": "moderate antagonist activity"}]}, {"smiles": "N[C@H](CCCCCP(=O)(O)O)C(=O)O", "note": "[D-APH, 2-amino-7-phosphonoheptanoic acid]", "values": [{"measurement": "agonist or antagonist activity on NMDA receptors", "setting": "[1]", "value": "most potent and selective antagonists"}]}, {"smiles": "N[C@H](CCCP(=O)(O)O)C(=O)O", "note": "[D-APV, 2-amino-5-phosphono-valeric acid]", "values": [{"measurement": "agonist or antagonist activity on NMDA receptors", "setting": "[1]", "value": "most potent and selective antagonists"}]}, {"smiles": "N[C@H](CCC(=O)O)C(=O)O", "note": "[D-glutamic acid]", "values": [{"measurement": "agonist or antagonist activity on NMDA receptors", "setting": "[1]", "value": "strong to moderate agonist activity"}]}, {"smiles": "N#Cc1cc2c(cc1C(F)(F)F)[nH]c(=O)c(=O)n2O", "note": "[Example 6 d, 7-Cyano-1-hydroxy-6-trifluoromethylquinoxaline-2,3(1H,4H)-dione]", "values": [{"measurement": "IC50", "setting": "[2]", "value": 0.15, "unit": "µg/mL"}, {"measurement": "Ki", "setting": "[3]", "value": 0.08, "unit": "µg/mL"}]}, {"smiles": "O=c1[nH]c2cc(C(F)(F)F)c(Cl)cc2n(O)c1=O", "note": "[Example 30 d, 7-chloro-1-hydroxy-6-trifluoromethylquinoxaline-2,3(1H,4H)-dione]", "values": [{"measurement": "IC50", "setting": "[2]", "value": 0.37, "unit": "µg/mL"}, {"measurement": "Ki", "setting": "[3]", "value": 0.12, "unit": "µg/mL"}]}, {"smiles": "NS(=O)(=O)c1cc2c(cc1C(F)(F)F)[nH]c(=O)c(=O)n2O", "note": "[Example 33 d, 1-Hydroxy-7-sulfamoyl-6-trifluoromethylquinoxaline-2,3(1H,4H)-dione]", "values": [{"measurement": "IC50", "setting": "[2]", "value": 0.14, "unit": "µg/mL"}, {"measurement": "Ki", "setting": "[3]", "value": 0.02, "unit": "µg/mL"}]}, {"smiles": "CC(=O)c1cc2c(cc1C#N)[nH]c(=O)c(=O)n2O", "note": "[Example 34 e, 7-Acetyl-6-cyano-1-hydroxyquinoxaline-2,3(1H,4H)-dione]", "values": [{"measurement": "IC50", "setting": "[2]", "value": 0.09, "unit": "µg/mL"}, {"measurement": "Ki", "setting": "[3]", "value": 0.27, "unit": "µg/mL"}]}, {"smiles": "CCOC(=O)CC[C@H](N)C(=O)OCC", "note": "[GDEE, Glutamic acid diethyl ester]", "values": [{"measurement": "agonist or antagonist activity on quisqualate receptors", "setting": "quisqualate receptors", "value": "selective but very weak antagonist"}]}, {"smiles": "N[C@H](C(=O)O)c1cc(=O)[nH]o1", "note": "[Ibotenic acid]", "values": [{"measurement": "agonist or antagonist activity on NMDA receptors", "setting": "[1]", "value": "strong to moderate agonist activity"}]}, {"smiles": "N[C@@H](CCC(=O)O)C(=O)O", "note": "[L-glutamic acid]", "values": [{"measurement": "agonist or antagonist activity on quisqualate receptors", "setting": "quisqualate receptors", "value": "potent agonists"}]}, {"smiles": "N[C@@H](CCS(=O)(=O)O)C(=O)O", "note": "[L-homocysteic acid]", "values": [{"measurement": "agonist or antagonist activity on NMDA receptors", "setting": "[1]", "value": "strong to moderate agonist activity"}]}, {"smiles": "N[C@H](CCC[C@H](N)C(=O)O)C(=O)O", "note": "[diaminopimelic acid]", "values": [{"measurement": "agonist or antagonist activity on NMDA receptors", "setting": "[1]", "value": "moderate antagonist activity"}]}, {"smiles": "N[C@@H](Cn1oc(=O)[nH]c1=O)C(=O)O", "note": "[quisqualic acid]", "values": [{"measurement": "agonist or antagonist activity on quisqualate receptors", "setting": "quisqualate receptors", "value": "activated selectively"}]}]}
